Laboratory results: patent publication US9732077B2, “Diazepane orexin receptor antagonists” (MERCK SHARP & DOHME CORP., priority 2013, dated 2017)

Tests used:
[1] = target: T1, rat orexin-1 receptor (Rattus norvegicus, UniProt P56718); test: OX1R FLIPR Ca flux assay (CHO cells); format: cell-based; conditions: CHO cells expressing rat orexin-1 receptor; agonist 70 pM Ala-6,12 orexin-A
T1 construct: expressed in transfected cells; host or cells: CHO cells (G418 selection)
T1 sequence (P56718 1-416): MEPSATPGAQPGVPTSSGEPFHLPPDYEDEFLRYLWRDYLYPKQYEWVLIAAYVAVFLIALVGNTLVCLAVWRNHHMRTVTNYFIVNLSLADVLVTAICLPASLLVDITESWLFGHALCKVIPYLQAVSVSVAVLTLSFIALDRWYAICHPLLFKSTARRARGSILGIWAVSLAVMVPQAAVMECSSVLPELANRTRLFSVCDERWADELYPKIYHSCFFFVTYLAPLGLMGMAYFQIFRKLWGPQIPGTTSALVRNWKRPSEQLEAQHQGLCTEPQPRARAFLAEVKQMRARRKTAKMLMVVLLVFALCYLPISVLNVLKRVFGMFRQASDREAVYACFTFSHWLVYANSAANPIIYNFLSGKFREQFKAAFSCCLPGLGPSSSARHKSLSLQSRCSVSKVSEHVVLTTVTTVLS
Procedure: (§1) The utility of the compounds in accordance with the present invention as orexin receptor OX1R and/or OX2R antagonists may be readily determined without undue experimentation by methodology well known in the art, including the “FLIPR Ca^+ Flux Assay” (Okumura et al., Biochem. Biophys. Res. Comm. 280:976-981, 2001). In a typical experiment the OX1 and OX2 receptor antagonistic activity of the compounds of the present invention was determined in accordance with the following experimental method. For intracellular calcium measurements, Chinese hamster ovary (CHO) cells expressing the rat orexin-1 receptor or the human orexin-2 receptor, are grown in Iscove's modified DMEM containing 2 mM L-glutamine, […], 1% hypoxanthine-thymidine supplement, 100 U/ml penicillin, 100 μg/ml streptomycin and 10% heat-inactivated fetal calf serum (FCS). The cells are seeded at 20,000 cells/well into Becton-Dickinson black 384-well clear bottom sterile plates coated with poly-D-lysine. All reagents were from GIBCO-Invitrogen Corp. The seeded plates are incubated overnight at 37° C. and 5% CO2. Ala-6,12 human orexin-A as the agonist is prepared as a 1 mM stock solution in 1% bovine serum albumin (BSA) and diluted in assay buffer (HBSS containing 20 mM HEPES, 0.1% BSA and 2.5 mM probenecid, pH7.4) for use in the assay at a final concentration of 70 pM. Test compounds are prepared as 10 mM stock solution in DMSO, then diluted in 384-well plates, first in DMSO, then assay buffer. On the day of the assay, cells are washed 3 times with 100 μl assay buffer and then incubated for 60 min (37° C., 5% CO2) in 60 μl assay buffer containing 1 μM Fluo-4AM ester, 0.02% pluronic acid, and 1% BSA. The dye loading solution is then aspirated and cells are washed 3 times with 100 μl assay buffer. 30 μl of that same buffer is left in each well. Within the Fluorescent Imaging Plate Reader (FLIPR, Molecular Devices), test compounds are added to the plate in a volume of 25 μl, incubated for 5 min and finally 25 μl of agonist is added. Fluorescence is measured for each well at 1 second intervals for 5 minutes and the height of each fluorescence peak is compared to the height of the fluorescence peak induced by 70 pM Ala-6,12 orexin-A with buffer in place of antagonist. For each antagonist, IC50 value (the concentration of compound needed to inhibit 50% of the agonist response) is determined. Alternatively, compound potency can be assessed by a radioligand binding assay (described in Bergman et. al. Bioorg. Med. Chem. Lett. 2008, 18, 1425-1430) in which the inhibition constant (Ki) is determined in membranes prepared from CHO cells expressing either the OX1 or OX2 receptor. The intrinsic orexin receptor antagonist activity of a compound which may be used in the present invention may be determined by these assays.

[2] = target: T2, human orexin-2 receptor (Homo sapiens, UniProt O43614); test: OX2R FLIPR Ca flux assay (CHO cells); format: cell-based; conditions: for IC50: CHO cells expressing human orexin-2 receptor, agonist 70 pM Ala-6,12 orexin-A; for Fold Selectivity OX2R vs. OX1R: ratio of OX1R FLIPR to OX2R FLIPR
T2 construct: expressed in transfected cells; host or cells: CHO cells (G418 selection)
T2 sequence (O43614 1-444): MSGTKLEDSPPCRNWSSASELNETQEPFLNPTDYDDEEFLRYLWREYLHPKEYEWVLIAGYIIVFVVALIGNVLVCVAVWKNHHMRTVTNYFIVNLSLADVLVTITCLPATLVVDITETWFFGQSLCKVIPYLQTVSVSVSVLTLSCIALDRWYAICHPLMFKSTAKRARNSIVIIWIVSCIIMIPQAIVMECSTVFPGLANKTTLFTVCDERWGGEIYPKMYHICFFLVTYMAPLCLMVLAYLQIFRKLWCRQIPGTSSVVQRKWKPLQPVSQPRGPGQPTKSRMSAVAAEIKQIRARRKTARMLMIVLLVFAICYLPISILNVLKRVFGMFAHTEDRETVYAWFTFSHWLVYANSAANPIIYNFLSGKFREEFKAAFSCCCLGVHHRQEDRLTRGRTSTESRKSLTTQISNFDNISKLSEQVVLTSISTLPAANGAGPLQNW
Procedure: as §1

Row | IC50 [1] | IC50 [2] | Fold Selectivity OX2R vs. OX1R [2] | SMILES | selectivity between orexin-2 receptor and orexin-1 receptor (in words) ([2]; comparison with diazepane compounds of WO 2007/126935, whole cell FLIPR functional assay)
1 | > 10000 nM | 166 nM | >60 fold | Cc1cc(C)nc(N2CCCN(C(=O)c3cccnc3-c3ccccc3)CC2)n1 [Example 11, 1-(4,6-dimethylpyrimidin-2-yl)-4-[(2-phenylpyridin-3-yl)carbonyl]-1,4-diazepane] | 
2 | > 10000 nM | 90 nM | >111 fold | CC(C)(O)c1csc(N2CCCN(C(=O)c3cccnc3OCC(F)F)CC2)n1 [Example 22, (2-(2,2-difluoroethoxy)pyridin-3-yl)(4-(4-(2-hydroxypropan-2-yl)thiazol-2-yl)-1,4-diazepan-1-yl)methanone] | 
3 | 1810 nM | 17 nM | 106 fold | Cc1cc(C)nc(N2CCCN(C(=O)c3ccccc3C3CC3)CC2)n1 [Example 9, 1-[(2-cyclopropylphenyl)-carbonyl]-4-(4,6-dimethylpyrimidin-2-yl)-1,4-diazepane] | 
4 | 3690 nM | 26 nM | 142 fold | Cc1oc(N2CCCN(C(=O)c3cccnc3OCC(F)F)CC2)nc1C(C)(C)O [Example 16, 2-[2-(4-{[2-(2,2-difluoroethoxy)pyridin-3-yl]carbonyl}-1,4-diazepan-1-yl)-5-methyl-1,3-oxazol-4-yl]propan-2-ol] | 
5 | > 10000 nM | 41 nM | >244 fold | Cc1oc(N2CCCN(C(=O)c3cccnc3OC(C)C)CC2)nc1C(C)(C)O [Example 14, 2-[5-methyl-2-(4-{[2-(1-methylethoxy)pyridin-3-yl]carbonyl}-1,4-diazepan-1-yl)-1,3-oxazol-4-yl]propan-2-ol] | 
6 | 7890 nM | 34 nM | 231 fold | CCOc1ncccc1C(=O)N1CCCN(c2nc(C(C)(C)O)c(C)o2)CC1 [Example 21, 2-(2-{4-[(2-ethoxypyridin-3-yl)carbonyl]-1,4-diazepan-1-yl}-5-methyl-1,3-oxazol-4-yl)propan-2-ol] | 
7 | > 10000 nM | 216 nM | >46 fold | CC(C)(O)c1csc(N2CCCN(C(=O)c3ccccc3OC(F)(F)F)CC2)n1 [Example 24, (4-(4-(2-hydroxypropan-2-yl)thiazol-2-yl)-1,4-diazepan-1-yl)(2-(trifluoromethoxy)phenyl)meth-anone] | 
8 | > 10000 nM | 57 nM | >175 fold | CC(C)(O)c1csc(N2CCCN(C(=O)c3cccnc3OCC(F)(F)F)CC2)n1 [Example 23, (4-(4-(2-hydroxypropan-2-yl)thiazol-2-yl)-1,4-diazepan-1-yl)(2-(2,2,2-trifluoroethoxy)pyridin-3-yl)methanone] | 
9 | > 10000 nM | 108 nM | >92 fold | CC(C)(O)c1csc(N2CCCN(C(=O)c3ccccc3C3CC3)CC2)n1 [Example 25, (2-cyclopropylphenyl)(4-(4-(2-hydroxypropan-2-yl)thiazol-2-yl)-1,4-diazepan-1-yl)methanone] | 
10 | > 10000 nM | 106 nM | >94 fold | Cc1cc(C)nc(N2CCCN(C(=O)c3cccnc3OC(C)C)CC2)n1 [Example 4, 1-(4,6-dimethylpyrimidin-2-yl)-4-{[2-(1-methylethoxy)pyridin-3-yl]carbonyl}-1,4-diazepane] | 
11 | 2700 nM | 28 nM | 96 fold | Cc1cc(C)nc(N2CCCN(C(=O)c3ccccc3-n3nccn3)CC2)n1 [Example 2, (2-(2H-1,2,3-triazol-2-yl)phenyl)(4-(4,6-dimethylpyrimidin-2-yl)-1,4-diazepan-1-yl)methanone] | 
12 | > 10000 nM | 20 nM | >500 fold | Cc1cc(C)nc(N2CCCN(C(=O)c3cccnc3OCC(F)F)CC2)n1 [Example 6, 1-{[2-(2,2-difluoroethoxy)pyridin-3-yl]carbonyl}-4-(4,6-dimethylpyrimidin-2-yl)-1,4-diazepane] | 
13 | 1270 nM | 27 nM | 47 fold | Cc1oc(N2CCCN(C(=O)c3ccccc3-n3nccn3)CC2)nc1C(C)(C)O [Example 13, 2-[5-methyl-2-(4-{[2-(2H-1,2,3-triazol-2-yl)phenyl]carbonyl}-1,4-diazepan-1-yl)-1,3-oxazol-4-yl]propan-2-ol] | 
14 |  |  |  | Cc1ccc(-n2nccn2)c(C(=O)N2CCCN(c3nc4ccccc4o3)CC2)c1 [Example B-3, reference compound] | greater selectivity for the orexin-1 receptor than for the orexin-2 receptor
15 | 2880 nM | 21 nM | 137 fold | Cc1oc(N2CCCN(C(=O)c3ccccc3OC(F)(F)F)CC2)nc1C(C)(C)O [Example 15, 2-[5-methyl-2-(4-{[2-(trifluoromethoxy)phenyl]carbonyl}-1,4-diazepan-1-yl)-1,3-oxazol-4-yl]propan-2-ol] | 
16 | > 10000 nM | 136 nM | >73 fold | CC(C)(O)c1csc(N2CCCN(C(=O)c3ccc(F)cc3-n3nccn3)CC2)n1 [Example 26, (4-fluoro-2-(2H-1,2,3-triazol-2-yl)phenyl)(4-(4-(2-hydroxypropan-2-yl)thiazol-2-yl)-1,4-diazepan-1-yl)methanone] | 
17 | 3240 nM | 19 nM | 170 fold | CCOc1ccccc1C(=O)N1CCCN(c2nc(C(C)(C)O)c(C)o2)CC1 [Example 19, 2-(2-{4-[(2-ethoxyphenyl)carbonyl]-1,4-diazepan-1-yl}-5-methyl-1,3-oxazol-4-yl)propan-2-ol] | 
18 | 2490 nM | 17 nM | 146 fold | Cc1oc(N2CCCN(C(=O)c3cccnc3OCC(F)(F)F)CC2)nc1C(C)(C)O [Example 17, 2-[5-methyl-2-(4-{[2-(2,2,2-trifluoroethoxy)pyridin-3-yl]carbonyl}-1,4-diazepan-1-yl)-1,3-oxazol-4-yl]propan-2-ol] | 
19 | 8500 nM | 64 nM | 132 fold | CCOc1ccccc1C(=O)N1CCCN(c2nc(C)cc(C)n2)CC1 [Example 7, 1-(4,6-dimethylpyrimidin-2-yl)-4-[(2-ethoxyphenyl)carbonyl]-1,4-diazepane] | 

Row | SMILES | IC50 [1] | IC50 [2] | Fold Selectivity OX2R vs. OX1R [2] | selectivity between orexin-2 receptor and orexin-1 receptor (in words) ([2]; comparison with diazepane compounds of WO 2007/126935, whole cell FLIPR functional assay)
20 | Cc1cc(C)nc(N2CCCN(C(=O)c3ccccc3-n3cccn3)CC2)n1 [Example 8, 1-(4,6-dimethylpyrimidin-2-yl)-4-{[2-(1H-pyrazol-1-yl)phenyl]carbonyl}-1,4-diazepane] | > 10000 nM | 88 nM | >113 fold | 
